Each structure is given as a SMILES string.

Usually IC50 stands for the concentration that inhibits the measured activity by half. The low end stands for inhibition by little substance, the high end for a need for much substance.

The assay relates to LPS-activated NO production in RAW264.7 cells. The assay is described as follows: Inhibition of LPS-activated NO production in RAW264.7 cells (Griess assay). The note with it: Mus musculus, LPS-activated RAW264.7 cells. It counts as cell-based. On the procedure:
All isolated compounds (except for 14 with limited amount) were tested for their inhibition activity against LPS-activated NO production in RAW264.7 cells using the Griess assay. […] The structure of PGA2 made a more positive contribution to the anti-inflammatory activity than those of PGB2 (16 vs. 15).
The anti-inflammation activity of the isolated compounds was evaluated according to the reported procedures.

With `CC1=CC2OCC(C)=C2CCC2(C)OC2CCC(C)(O)C=CC1` (stereo not drawn) [Compound 6], it took 26.7 µM to reach half-maximal inhibition (IC50). Compound `C=C1CC[C@@H](C(C)C)/C=C/[C@@](C)(O)C/C=C/[C@](C)(O)CC[C@@H]1O` [Compound 7, (1S,2E,4S,6E,8S,11R)-2,6,12(20)-cembratriene-4,8,11-triol] showed an IC50 of 17.6 µM. In turn, `CC(=O)C=C=C1C(C)(C)C[C@H](OC(C)=O)C[C@@]1(C)O` [Compound 9, apo-9′-fucoxanthinone] registered an IC50 of 32.1 µM. The value for `CCCCCC(O)C=CC1=C(CC=CCCCC(=O)O)C(=O)CC1` (stereo not drawn) [Compound 10, (5E)-PGB2] was 20.4 µM; that for `CCCCCC(O)CCC1=C(CC=CCCCC(=O)O)C(=O)CC1` (stereo not drawn) [Compound 12, 13,14-dihydro-PGB2] was 24.8 µM. The value for `CCCCCC(O)CCC1=C(CC=CCCCC(=O)OC)C(=O)CC1` (stereo not drawn) [Compound 13, 13,14-dihydro-PGB2-Me] was 16.1 µM. With `CCCCC[C@H](O)/C=C/C1=C(C/C=C\CCCC(=O)O)C(=O)CC1` [Compound 15, PGB2], the IC50 turned out to be 15.9 µM.

`CCCCC[C@H](O)/C=C/[C@H]1C=CC(=O)[C@@H]1C/C=C\CCCC(=O)O` [Compound 16, PGA2] came in with an IC50 of 7.1 µM.

Consider `COc1ccc2c(c1)c(CC(=O)O)c(C)n2C(=O)c1ccc(Cl)cc1` [indomethacin, reference compound], for which the half-inhibitory concentration (IC50) was found to be 39.8 µM.
